Like-named read-outs stand apart in the source and are kept apart here. Marks after values point to notes of the source that are not given here. Starred links: 1 amine or outer side, 2 acyl side, 3 side chain; linkers in the order of their positions; H or OH if unused. Non-standard residues stand in square brackets, D forms with d. Residues, ends and D or L forms follow the SMILES beside them. Groups on a side chain read outwards from the residue. *: point of attachment. C20 diacid = O=C(O)CCCCCCCCCCCCCCCCCCC(=O)*; γGlu = O=C(O)[C@H](CCC(=O)[*:2])N[*:1]; NMeI = CC[C@H](C)[C@H](NC)C(=O)O; Nle = CCCC[C@H](N)C(=O)O; AEEA = NCCOCCOCC(=O)O; Aib = CC(C)(N)C(=O)O
Columns and labels:
hCRHR2 = molecular target: T1, hCRHR2 (Homo sapiens, UniProt Q13324); assay: HTRF cAMP assay, determination of hCRHR2 potency (peptide libraries 5 conc., purified peptides 11 conc.); assay type: cell-based; details: for EC50: read-out: hCRHR2 EC50
T1 sequence (Q13324 1-411): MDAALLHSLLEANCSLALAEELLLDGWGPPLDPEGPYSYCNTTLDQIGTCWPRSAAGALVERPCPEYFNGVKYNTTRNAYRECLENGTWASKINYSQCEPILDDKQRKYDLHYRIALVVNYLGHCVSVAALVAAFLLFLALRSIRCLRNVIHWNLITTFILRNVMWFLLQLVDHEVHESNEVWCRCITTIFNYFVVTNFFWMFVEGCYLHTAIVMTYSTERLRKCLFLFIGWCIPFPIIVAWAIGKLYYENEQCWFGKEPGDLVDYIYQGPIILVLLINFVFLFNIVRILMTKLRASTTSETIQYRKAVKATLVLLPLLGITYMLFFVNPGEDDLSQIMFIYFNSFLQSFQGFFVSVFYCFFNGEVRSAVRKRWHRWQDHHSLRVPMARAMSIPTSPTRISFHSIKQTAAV
Outline: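 Agonist peptides are added to suspended, freshly thawed CHO-K1 cells that stably carry the human receptor. Intracellular cAMP competes with d2-cAMP for a cryptate-tagged antibody, lowering the FRET signal. A variable-slope sigmoid curve is fitted to obtain EC50.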

PK in rats = assay type: in vivo; set-up: T½ / MRT: unit not given here; details: for MRT / T½ / clearance / half-life / Cmax / Tmax: Rat; for clearance / half-life / Cmax / Tmax / bioavailability: male, in vivo; for clearance / half-life / Cmax / Tmax: Sprague Dawley (RJHan:SD); for half-life: read-out: T½ (converted); for bioavailability: Sprague Dawley, rat
Outline: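 Lean male Sprague Dawley rats (n = 3 per group) got a two-peptide combination at 50 nmol/kg IV and SC. Plasma was sampled from 0.17 to 96 h post dose and analysed by LC-MSMS. PK parameters came from non-compartmental analysis.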

[1] = Effect on acute food intake in mice; assay type: in vivo; details: single subcutaneous dose
Outline: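 Male NMRI mice (n=7-8 per group) were fasted from six hours before the dark phase. They received a single subcutaneous peptide dose one hour before dark onset. Hourly food intake was monitored for 72 h and expressed as percent reduction versus vehicle, analysed by one-way ANOVA with Dunnett's test.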

[2] = Thioflavin T fibril formation assay of purified peptides; assay type: physicochemical; set-up: key: Amyloid fibril formation detected by an increase in ThT fluorescence was denoted with "Yes"; samples without increasing ThT fluorescence hence not forming amyloid fibrils were denoted "No"; details: for Amyloid fibril formation + semaglutide (Ozempic®), pH 7.4: 200 µM compound dissolved in semaglutide drug product, listed as None = drug product alone; for Amyloid fibril formation pH 7.0 / Amyloid fibril formation pH 7.5 / Amyloid fibril formation pH 8.0: 200 µM in 50 mM phosphate buffer
Outline: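 Compounds at 200 µM in 50 mM phosphate buffer at the stated pH values, or at 200 µM in semaglutide drug product adjusted to pH 7.4, with 4 µM ThT final. Fibrillation followed as ThT fluorescence (ex 450/em 480 nm) over 96 h at 40°C, with 5 min shaking at 700 rpm alternating with 5 min rest; triplicates.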

SMILES | Solubility pH 6.5 (mg/ml) | Solubility pH 7.0 (mg/mL) | Solubility pH 7.5 (mg/mL) | Solubility pH 7.5 + phenol (mg/mL) | Solubility pH 7.5, target conc. =10 mg/mL (measured mg/mL) [mg/mL] | MRT (PK in rats) | T½ (PK in rats) | clearance (PK in rats; iv, 50 nmol/kg i.v.) [mL/min/kg] | half-life (PK in rats; iv, 50 nmol/kg i.v.) [h] | Cmax (PK in rats; sc, 50 nmol/kg s.c.) [nM] | Tmax (PK in rats; sc, 50 nmol/kg s.c.) [h] | half-life (PK in rats; sc, 50 nmol/kg s.c.) [h] | bioavailability (PK in rats; sc) [%] | % FI compared to vehicle, 24 h post-dosing ([1]; 30 nmol/kg) | % FI compared to vehicle, 24 h post-dosing ([1]; 100 nmol/kg) | % FI compared to vehicle, 24 h post-dosing ([1]; 300 nmol/kg) | Amyloid fibril formation + semaglutide (Ozempic®), pH 7.4 [2] | Amyloid fibril formation pH 7.0 [2] | Amyloid fibril formation pH 7.5 ([2]; pH 7.5) | Amyloid fibril formation pH 8.0 [2] | also measured
CCCC[C@H](NC(=O)[C@@H](NC(=O)[C@H](CCC(=O)O)NC(=O)[C@H](C)NC(=O)[C@H](CC(N)=O)NC(=O)C(C)(C)NC(=O)[C@H](CCCCNC(=O)COCCOCCNC(=O)COCCOCCNC(=O)CC[C@H](NC(=O)CC[C@H](NC(=O)CCCCCCCCCCCCCCCCCCC(=O)O)C(=O)O)C(=O)O)NC(=O)[C@H](C)NC(=O)[C@H](CCC(N)=O)NC(=O)[C@H](CCC(=O)O)NC(=O)[C@H](CCCNC(=N)N)NC(=O)[C@H](C)NC(=O)[C@H](C)NC(=O)[C@H](CCCNC(=N)N)NC(=O)[C@H](C)NC(=O)[C@H](CCCNC(=N)N)NC(=O)[C@H](C)NC(=O)[C@H](CCC(N)=O)NC(=O)[C@H](CO)NC(=O)[C@H](CC(C)C)NC(=O)[C@H](CC(C)C)NC(=O)[C@@H](NC(=O)[C@H](CCC(N)=O)NC(=O)[C@H](CC(C)C)NC(=O)[C@H](CC(C)C)NC(=O)CNC(=O)[C@@H](NC(=O)[C@@H]1CCCN1C(=O)[C@@H](NC(=O)[C@H](CC(=O)O)NC(=O)[C@H](CC(C)C)NC(=O)[C@H](CO)NC(=O)[C@H](CC(C)C)NC(=O)[C@@H](NC(=O)[C@@H]1CCCN1)C(C)C)C(C)C)[C@@H](C)CC)[C@@H](C)CC)[C@@H](C)CC)C(=O)N[C@@H](C)C(=O)N[C@@H](CCC(=O)O)C(=O)N[C@H](C(N)=O)C(C)C [SEQ ID NO: 238] (H-PVLSLDVPIGLLQILLSQARARAAREQAK([AEEA-AEEA-γGlu-γGlu-C20 diacid])[Aib]NAEI[Nle]AEV-NH2) | 20.4 | 20.6 | 18.0 | 17.9 | 11 | 14.2 | 10.2 | 0.117 | 10.2 | 91 | 24 | 11 | 43 | 29.73*** % | 12.92*** % | 7.94*** % | No | No | No | No | Selectivity ratio (hCRHR1/ hCRHR2) (hCRHR2; Table 5): >6329; EC50 (hCRHR2; Table 5, purified peptides): 0.79 nM; Fibrillation (pH 7.5) ([2]; pH 7.5): No
CC[C@H](C)[C@H](NC)C(=O)N[C@H](C(=O)N[C@@H](CC(C)C)C(=O)N[C@@H](CO)C(=O)N[C@@H](CC(C)C)C(=O)N[C@@H](CC(=O)O)C(=O)N[C@H](C(=O)N1CCC[C@H]1C(=O)N[C@H](C(=O)NCC(=O)N[C@@H](CC(C)C)C(=O)N[C@@H](CC(C)C)C(=O)N[C@@H](CCC(N)=O)C(=O)N[C@H](C(=O)N[C@@H](CC(C)C)C(=O)N[C@@H](CC(C)C)C(=O)N[C@@H](CCC(=O)O)C(=O)N[C@@H](CCC(N)=O)C(=O)N[C@@H](C)C(=O)N[C@@H](CCCNC(=N)N)C(=O)N[C@@H](C)C(=O)N[C@@H](CCCNC(=N)N)C(=O)N[C@@H](C)C(=O)N[C@@H](C)C(=O)N[C@@H](CCCNC(=N)N)C(=O)N[C@@H](CCC(=O)O)C(=O)N[C@@H](CCC(N)=O)C(=O)N[C@@H](C)C(=O)N[C@@H](CCCCNC(=O)COCCOCCNC(=O)COCCOCCNC(=O)CC[C@H](NC(=O)CC[C@H](NC(=O)CCCCCCCCCCCCCCCCCCC(=O)O)C(=O)O)C(=O)O)C(=O)N[C@H](C(=O)N[C@@H](CC(N)=O)C(=O)NC(C)(C)C(=O)N[C@@H](CCC(=O)O)C(=O)N[C@H](C(=O)N[C@@H](CC(C)C)C(=O)N[C@@H](C)C(=O)N[C@@H](CCC(=O)O)C(=O)N[C@H](C(N)=O)C(C)C)[C@@H](C)CC)[C@@H](C)O)[C@@H](C)CC)[C@@H](C)CC)C(C)C)C(C)C [SEQ ID NO: 16] (H-[NMeI]VLSLDVPIGLLQILLEQARARAAREQAK([AEEA-AEEA-γGlu-γGlu-C20 diacid])TN[Aib]EILAEV-NH2) | 20.6 | 19.8 | 17.9 | 18.0 | 10 | 9.4 | 7.8 | 0.117 | 7.8 | 87 | 24 | 9.8 | 31 | 44.62*** % | 18.21*** % | 12.36*** % | No | No | No | No | Selectivity ratio (hCRHR1/ hCRHR2) (hCRHR2; hCRHR1-EC50/hCRHR2-EC50): >1852; EC50 (hCRHR2; purified peptides, CHO-K1 cells stably expressing hCRHR2, cAMP HTRF): 2.7 nM; Fibrillation (pH 7.5) ([2]; pH 7.5, ThT assay): No
